# Assay results taken from patent US20130195798A1, “COMBINATION THERAPY FOR TREATMENT OF VIRAL INFECTIONS” (The Chancellors, Masters and Scholars of the University of …, priority 2006, published 2013).
# Experiments:
# ncp BVDV strain Pe515 = test: Real time RT-PCR of secreted viral RNA in supernatants of persistently infected MDBK cells (Example 3); format: cell-based, bovine viral diarrhea virus; settings: iminosugar added to IFN/RBV from the beginning of treatment
# Protocol: Madin-Darby bovine kidney cells (MDBK) MDBK cells were seeded at 1×10^6 cells/35 mm dish, infected with non-cytopathic (ncp) BVDV strain Pe515 (National Animal Disease Laboratory) at a MOI of 0.1, and passaged into fresh RPMI 1640 medium containing 10% (v/v) Foetal calf serum using a 1:8 dilution every three days. After achieving a stable infection IFN (1000 IU) and RBV (1 μM) (Sigma-Aldrich) were added to the cells; this passage was denoted passage 0 (P0). Simultaneously, a non-drug treated positive control sample and mock-infected (M.I.) negative controls cultured in the presence and absence of IFN and RBV (1000 IU and 1 μM, respectively) were prepared. Cells continued to be passaged every 3 days into fresh medium containing IFN and RBV. […] At each passage the combined supernatants of cultured cells from duplicate wells were harvested (to account for biological variation), levels of secreted viral RNA measured (by real time RT-PCR using technical duplicates) and the infectivity of the supernatant determined using an immunofluorescence (IF) based infectivity assay.
# At each passage, a 500 μl aliquot of each supernatant harvested from the cultured cells was concentrated by ultrafiltration (10 kDa molecular weight cut off Centricon filter; Millipore, Mass., USA) to 140 μl. […] Real time RT-PCR was carried out using the Qiagen Quantitect RT-PCR kit. […]
# cytopathic BVDV = settings: higher NB-DNJ concentrations in combination with IFN; cited from earlier work
smiles,measurement,setting,value
"CCCCN1C[C@H](O)[C@@H](O)[C@H](O)[C@H]1CO [NB-DNJ, N-butyl deoxynojirimycin]",additional effect on decrease of viral RNA levels (synergy),ncp BVDV strain Pe515,no synergy was observed
same,antiviral effect of the combination,cytopathic BVDV,greater than additive antiviral effect
